The supplement of paper PMC10307832

Tests used:
Assay in all cases: relative viability (nuclei count vs DMSO), 5 days (fraction); higher = more cells survive
Pictilisib + Navitoclax = compound: CS(=O)(=O)N1CCN(Cc2cc3nc(-c4cccc5[nH]ncc45)nc(N4CCOCC4)c3s2)CC1 [Pictilisib] + CC1(C)CCC(c2ccc(Cl)cc2)=C(CN2CCN(c3ccc(C(=O)NS(=O)(=O)c4ccc(N[C@H](CCN5CCOCC5)CSc5ccccc5)c(S(=O)(=O)C(F)(F)F)c4)cc3)CC2)C1 [Navitoclax] (partner 0.5 µM)
Outline: (§1)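 Lung cancer cell lines in 1536-well plates got either a single drug or a fixed anchor-drug dose together with five library-drug doses (not always all listed) in √10 steps, by pin tool, on the day after seeding. Nuclei were counted after 5 days, and relative viability is the treated-to-vehicle ratio of nuclei counts. Values are medians of duplicate plates.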

Pictilisib + Foretinib = compound: CS(=O)(=O)N1CCN(Cc2cc3nc(-c4cccc5[nH]ncc45)nc(N4CCOCC4)c3s2)CC1 [Pictilisib] + COc1cc2c(Oc3ccc(NC(=O)C4(C(=O)Nc5ccc(F)cc5)CC4)cc3F)ccnc2cc1OCCCN1CCOCC1 [Foretinib] (partner 0.25 µM)
Outline: as §1

Pictilisib + Dasatinib = compound: CS(=O)(=O)N1CCN(Cc2cc3nc(-c4cccc5[nH]ncc45)nc(N4CCOCC4)c3s2)CC1 [Pictilisib] + Cc1nc(Nc2ncc(C(=O)Nc3c(C)cccc3Cl)s2)cc(N2CCN(CCO)CC2)n1 [Dasatinib] (partner 0.075 µM)
Outline: as §1

MK-2206 + Bortezomib = compound: NC1(c2ccc(-c3nc4ccn5c(=O)[nH]nc5c4cc3-c3ccccc3)cc2)CCC1 [MK-2206] + CC(C)C[C@H](NC(=O)[C@H](Cc1ccccc1)NC(=O)c1cnccn1)B(O)O [Bortezomib] (partner 0.002 µM)
Outline: as §1

MK-2206 + Pemetrexed = compound: NC1(c2ccc(-c3nc4ccn5c(=O)[nH]nc5c4cc3-c3ccccc3)cc2)CCC1 [MK-2206] + Nc1nc2[nH]cc(CCc3ccc(C(=O)N[C@@H](CCC(=O)O)C(=O)O)cc3)c2c(=O)[nH]1 [Pemetrexed] (partner 0.2 µM)
Outline: as §1

UMC-11
relative viability (Pictilisib + Navitoclax; first compound 0.02 µM): 0.343
relative viability (Pictilisib + Navitoclax; first compound 0.06325 µM): 0.281
relative viability (Pictilisib + Navitoclax; first compound 0.6325 µM): 0.349
relative viability (Pictilisib + Navitoclax; first compound 2 µM): 0.281
relative viability (Pictilisib + Foretinib; first compound 0.02 µM): 0.983
relative viability (Pictilisib + Foretinib; first compound 0.06325 µM): 1.25
relative viability (Pictilisib + Foretinib; first compound 0.6325 µM): 1.13
relative viability (Pictilisib + Foretinib; first compound 2 µM): 0.979
relative viability (Pictilisib + Dasatinib; first compound 0.02 µM): 0.449
relative viability (Pictilisib + Dasatinib; first compound 0.06325 µM): 0.461
relative viability (Pictilisib + Dasatinib; first compound 0.6325 µM): 0.458
relative viability (Pictilisib + Dasatinib; first compound 2 µM): 0.515
relative viability (MK-2206 + Bortezomib; first compound 0.01 µM): 0.668
relative viability (MK-2206 + Bortezomib; first compound 0.03162 µM): 0.793
relative viability (MK-2206 + Bortezomib; first compound 0.3162 µM): 0.852
relative viability (MK-2206 + Bortezomib; first compound 1 µM): 0.389
relative viability (MK-2206 + Pemetrexed; first compound 0.01 µM): 0.862
relative viability (MK-2206 + Pemetrexed; first compound 0.03162 µM): 0.763
relative viability (MK-2206 + Pemetrexed; first compound 0.3162 µM): 0.836
relative viability (MK-2206 + Pemetrexed; first compound 1 µM): 0.791
